# Target: T1, Vesicular acetylcholine transporter (Homo sapiens, UniProt Q16572)
# T1 sequence (Q16572 whole entry): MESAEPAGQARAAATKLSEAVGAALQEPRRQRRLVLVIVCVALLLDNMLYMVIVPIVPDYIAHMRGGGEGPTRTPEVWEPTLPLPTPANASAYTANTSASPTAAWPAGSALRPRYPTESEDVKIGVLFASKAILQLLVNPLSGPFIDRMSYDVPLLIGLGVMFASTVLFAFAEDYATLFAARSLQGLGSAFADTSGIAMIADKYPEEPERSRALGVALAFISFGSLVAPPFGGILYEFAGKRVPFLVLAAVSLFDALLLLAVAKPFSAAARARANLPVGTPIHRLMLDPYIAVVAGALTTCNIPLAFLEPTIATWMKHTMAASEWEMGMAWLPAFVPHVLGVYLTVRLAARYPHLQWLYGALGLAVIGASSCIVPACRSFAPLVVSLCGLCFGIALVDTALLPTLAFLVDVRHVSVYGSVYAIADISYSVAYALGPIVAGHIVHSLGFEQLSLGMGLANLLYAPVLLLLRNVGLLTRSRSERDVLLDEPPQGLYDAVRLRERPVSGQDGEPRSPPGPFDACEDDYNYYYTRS
# Experiment: Displacement of [3H]-vesamicol from human VAChT after 24 hrs by liquid scintillation spectrometry analysis
row,Compound,Ki [nM]
1,O=C(c1ccc(F)cc1)C1CCN([C@@H]2Cc3c(cccc3OCCF)C[C@H]2O)CC1,1.6
2,O=C(c1ccc(F)cc1)C1CCN(C2Cc3c(cccc3OCCF)CC2O)CC1 (stereo not drawn),13
3,O=C(c1ccc(F)cc1)C1CCN([C@@H]2Cc3cccc(OCCF)c3C[C@H]2O)CC1,93

# Source: BindingDB's records for doi:10.1016/j.bmc.2015.05.058 (Washington University, 2015)
